Laboratory results taken from patent US10294202B2, “Pyrrolidinones as herbicides” (FMC Corporation, priority 2013, dated 2019).

Experiments:
Test in all cases: Test A pre-/postemergence herbicide test
giant foxtail = format: in vivo, Setaria faberii
Excerpt: (§1) Seeds of plant species selected from bamyardgrass (Echinochloa crus-galli), kochia (Kochia scoparia), ragweed (common ragweed, Ambrosia elatior), ryegrass, Italian (Italian ryegrass, Lolium multiflorum), crabgrass, large (large crabgrass Digitaria sanguinalis), giant foxtail (Setaria faberii), morningglory (Ipomoea spp.), pigweed (Amaranthus retroflexus), velvetleaf (Abutilon theophrasti), wheat (Triticum aestivum), and corn (Zea mays) were planted into a blend of loam soil and sand and treated preemergence with a directed soil spray using test chemicals formulated in a non-phytotoxic solvent mixture which included a surfactant. At the same time, plants selected from these crop and weed species and also blackgrass (Alopecurus myosuroides), and galium (catchweed bedstraw, Galium aparine) were planted in pots containing the same blend of loam soil and sand and treated with postemergence applications of test chemicals formulated in the same manner. Plants ranged in height from 2 to 10 cm and were in the one- to two-leaf stage for the postemergence treatment. Treated plants and untreated controls were maintained in a greenhouse for approximately 10 days, after which time all treated plants were compared to untreated controls and visually evaluated for injury. Plant response ratings, summarized in Table A, are based on a 0 to 100 scale where 0 is no effect and 100 is complete control. A dash (-) response means no test result.

morningglory = format: in vivo, Ipomoea spp.
Excerpt: as §1

crabgrass, large = format: in vivo, Digitaria sanguinalis
Excerpt: as §1

wheat = format: in vivo, Triticum aestivum
Excerpt: as §1

barnyardgrass = format: in vivo, Echinochloa crus-galli
In short: (§2)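 Visual 0–100 ratings (100 = complete control) made about 10 days after treatment, greenhouse-held plants compared with untreated controls. Treatments: postemergence sprays on one- to two-leaf plants (2–10 cm tall) and preemergence directed soil sprays after planting in loam–sand, chemicals formulated in non-phytotoxic solvent containing surfactant.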

pigweed = format: in vivo, Amaranthus retroflexus
In short: as §2

corn = format: in vivo, Zea mays
In short: as §2

velvetleaf = format: in vivo, Abutilon theophrasti
Excerpt: as §1

[1] = Postemergence, 1000 g ai/ha, 0 to 100 scale (0 no effect, 100 complete control)
[2] = preemergence, 1000 g ai/ha, 0 to 100 scale
[3] = preemergence, 1000 g ai/ha, 0 to 100 scale (0 no effect, 100 complete control)
[4] = Postemergence, 125 g ai/ha, 0 to 100 scale, 0 no effect, 100 complete control
[5] = Postemergence, 500 g ai/ha, 0 to 100 scale (0 no effect, 100 complete control)
[6] = Preemergence, 125 g ai/ha, visual rating on 0 to 100 scale (0 no effect, 100 complete control)
[7] = preemergence, 500 g ai/ha, 0 to 100 scale
[8] = Preemergence, 1000 g ai/ha, visual rating on 0 to 100 scale (0 no effect, 100 complete control), approx. 10 days
[9] = Postemergence, 125 g ai/ha, visual rating on 0 to 100 scale (0 no effect, 100 complete control), approx. 10 days

In the case of `Cn1ccnc1C1CNC(=O)C1C(=O)Nc1cccc(F)c1F` (racemic) [Compound 252], the “Plant response rating, Foxtail, Giant” value (giant foxtail; [1]) is reported as 0, the “Plant response rating, Foxtail, Giant” value (giant foxtail; [2]) is reported as 20 and the “Plant response rating, Morningglory” value (morningglory; [1]) is reported as 0. For the same compound, the “Plant response rating, Morningglory” value (morningglory; [2]) was 0, the “Plant response rating, Crabgrass, Large” value (crabgrass, large; [1]) was 0 and the “Plant response rating, Crabgrass, Large” value (crabgrass, large; [2]) was 40. The “Plant response rating, Wheat” value (wheat; [1]) was 0, the “Plant response rating, Wheat” value (wheat; [2]) was 0 and the “Plant response rating, Barnyardgrass” value (barnyardgrass; [1]) was 0. For the same compound, the “Plant response rating, Barnyardgrass” value (barnyardgrass; [3]) was 20, the “Plant response rating, Pigweed” value (pigweed; [1]) was 0 and the “Plant response rating, Corn” value (corn; [1]) was 0. The “Plant response rating, Corn” value (corn; [2]) was 0, the “Plant response rating, Velvetleaf” value (velvetleaf; [1]) was 0 and the “Plant response rating, Velvetleaf” value (velvetleaf; [2]) was 0.

For `O=C1NCC(c2cc(Cl)cc(Cl)c2)C1C(=O)Nc1ccccc1F` (racemic) [Compounds 90], the “Plant response rating, Foxtail, Giant” value (giant foxtail; [4]) was 40, the “Plant response rating, Foxtail, Giant” value (giant foxtail; [5]) was 70 and the “Foxtail, Giant plant response rating” value (giant foxtail; [6]) was 60. For the same compound, the “Plant response rating, Foxtail, Giant” value (giant foxtail; [7]) was 70, the “Plant response rating, Morningglory” value (morningglory; [4]) was 0 and the “Plant response rating, Morningglory” value (morningglory; [5]) was 0. For the same compound, the “Morningglory plant response rating” value (morningglory; [6]) was 0, the “Plant response rating, Morningglory” value (morningglory; [7]) was 0 and the “Plant response rating, Crabgrass, Large” value (crabgrass, large; [4]) was 50. The “Plant response rating, Crabgrass, Large” value (crabgrass, large; [5]) was 70, the “Crabgrass, Large plant response rating” value (crabgrass, large; [6]) was 70 and the “Plant response rating, Crabgrass, Large” value (crabgrass, large; [7]) was 80. For the same compound, the “Plant response rating, Wheat” value (wheat; [4]) was 0, the “Plant response rating, Wheat” value (wheat; [5]) was 0 and the “Wheat plant response rating” value (wheat; [6]) was 0. The “Plant response rating, Wheat” value (wheat; [7]) was 0, the “Plant response rating, Barnyardgrass” value (barnyardgrass; [4]) was 30 and the “Plant response rating, Barnyardgrass” value (barnyardgrass; [5]) was 70. For the same compound, the “Barnyardgrass plant response rating” value (barnyardgrass; [6]) was 30, the “Plant response rating, Barnyardgrass” value (barnyardgrass; preemergence, 500 g ai/ha, 0 to 100 scale (0 no effect, 100 complete control)) was 70 and the “Plant response rating, Pigweed” value (pigweed; [4]) was 0. The “Plant response rating, Pigweed” value (pigweed; [5]) was 20, the “Pigweed plant response rating” value (pigweed; [6]) was 0 and the “Plant response rating, Pigweed” value (pigweed; [7]) was 0. The “Plant response rating, Corn” value (corn; [4]) was 0, the “Plant response rating, Corn” value (corn; [5]) was 30 and the “Corn plant response rating” value (corn; [6]) was 0. For the same compound, the “Plant response rating, Corn” value (corn; [7]) was 0, the “Plant response rating, Velvetleaf” value (velvetleaf; [4]) was 0 and the “Plant response rating, Velvetleaf” value (velvetleaf; [5]) was 0. For the same compound, the “Velvetleaf plant response rating” value (velvetleaf; [6]) was 0 and the “Plant response rating, Velvetleaf” value (velvetleaf; [7]) was 0.

In the case of `O=C1NCC(c2ccc(F)c(F)c2)C1C(=O)Nc1ccncc1F` (centres unmarked) [Compound 22], the “Plant response rating, Foxtail, Giant” value (giant foxtail; [1]) is reported as 0, the “Plant response rating, Foxtail, Giant” value (giant foxtail; [8]) is reported as 30 and the “Plant response rating, Morningglory” value (morningglory; [1]) is reported as 0. The “Plant response rating, Morningglory” value (morningglory; [8]) was 0, the “Plant response rating, Crabgrass, Large” value (crabgrass, large; [1]) was 0 and the “Plant response rating, Crabgrass, Large” value (crabgrass, large; [8]) was 70. For the same compound, the “Plant response rating, Wheat” value (wheat; [1]) was 0, the “Plant response rating, Wheat” value (wheat; [8]) was 0 and the “Plant response rating, Barnyardgrass” value (barnyardgrass; [1]) was 0. The “Plant response rating, Barnyardgrass” value (barnyardgrass; [8]) was 0, the “Plant response rating, Pigweed” value (pigweed; [1]) was 0 and the “Plant response rating, Corn” value (corn; [1]) was 0. For the same compound, the “Plant response rating, Corn” value (corn; [8]) was 0, the “Plant response rating, Velvetleaf” value (velvetleaf; [1]) was 0 and the “Plant response rating, Velvetleaf” value (velvetleaf; [8]) was 0.

In the case of `CN(C(=O)C1C(=O)NCC1c1ccc(F)c(F)c1)c1ccccc1F` (centres unmarked) [Compound 24], the “Plant response rating, Foxtail, Giant” value (giant foxtail; [1]) is reported as 0, the “Plant response rating, Foxtail, Giant” value (giant foxtail; [8]) is reported as 40 and the “Plant response rating, Morningglory” value (morningglory; [1]) is reported as 0. The “Plant response rating, Morningglory” value (morningglory; [8]) was 0, the “Plant response rating, Crabgrass, Large” value (crabgrass, large; [1]) was 30 and the “Plant response rating, Crabgrass, Large” value (crabgrass, large; [8]) was 70. For the same compound, the “Plant response rating, Wheat” value (wheat; [1]) was 0, the “Plant response rating, Wheat” value (wheat; [8]) was 0 and the “Plant response rating, Barnyardgrass” value (barnyardgrass; [1]) was 0. The “Plant response rating, Barnyardgrass” value (barnyardgrass; [8]) was 0, the “Plant response rating, Pigweed” value (pigweed; [1]) was 0 and the “Plant response rating, Pigweed” value (pigweed; [8]) was 0. The “Plant response rating, Corn” value (corn; [1]) was 0, the “Plant response rating, Corn” value (corn; [8]) was 0 and the “Plant response rating, Velvetleaf” value (velvetleaf; [1]) was 0. For the same compound, the “Plant response rating, Velvetleaf” value (velvetleaf; [8]) was 60.

With `C#CCN(C(=O)C1C(=O)NCC1c1ccc(F)c(F)c1)c1ccccc1[N+](=O)[O-]` (centres unmarked) [Compound 265] the “Plant response rating, Foxtail, Giant” value (giant foxtail; [1]) was 0, the “Plant response rating, Foxtail, Giant” value (giant foxtail; [2]) was 0 and the “Plant response rating, Morningglory” value (morningglory; [1]) was 0. The “Plant response rating, Morningglory” value (morningglory; [2]) was 0, the “Plant response rating, Crabgrass, Large” value (crabgrass, large; [1]) was 0 and the “Plant response rating, Crabgrass, Large” value (crabgrass, large; [2]) was 0. For the same compound, the “Plant response rating, Wheat” value (wheat; [1]) was 0, the “Plant response rating, Wheat” value (wheat; [2]) was 0 and the “Plant response rating, Barnyardgrass” value (barnyardgrass; [1]) was 0. The “Plant response rating, Barnyardgrass” value (barnyardgrass; [3]) was 0, the “Plant response rating, Pigweed” value (pigweed; [1]) was 0 and the “Plant response rating, Pigweed” value (pigweed; [2]) was 0. For the same compound, the “Plant response rating, Corn” value (corn; [1]) was 0, the “Plant response rating, Corn” value (corn; [2]) was 0 and the “Plant response rating, Velvetleaf” value (velvetleaf; [1]) was 0. For the same compound, the “Plant response rating, Velvetleaf” value (velvetleaf; [2]) was 0.

With `C=CCN(C(=O)C1C(=O)NCC1c1ccc(F)c(F)c1)c1ccccc1[N+](=O)[O-]` (centres unmarked) [Compound 266] the “Plant response rating, Foxtail, Giant” value (giant foxtail; [1]) was 0, the “Plant response rating, Foxtail, Giant” value (giant foxtail; [2]) was 0 and the “Plant response rating, Morningglory” value (morningglory; [9]) was 20. The “Plant response rating, Morningglory” value (morningglory; [1]) was 0, the “Plant response rating, Morningglory” value (morningglory; [2]) was 0 and the “Plant response rating, Crabgrass, Large” value (crabgrass, large; [1]) was 0. For the same compound, the “Plant response rating, Crabgrass, Large” value (crabgrass, large; [2]) was 0, the “Plant response rating, Wheat” value (wheat; [9]) was 40 and the “Plant response rating, Wheat” value (wheat; [1]) was 0. For the same compound, the “Plant response rating, Wheat” value (wheat; [2]) was 0, the “Plant response rating, Barnyardgrass” value (barnyardgrass; [1]) was 0 and the “Plant response rating, Barnyardgrass” value (barnyardgrass; [3]) was 0. The “Plant response rating, Pigweed” value (pigweed; [9]) was 40, the “Plant response rating, Pigweed” value (pigweed; [1]) was 0 and the “Plant response rating, Pigweed” value (pigweed; [2]) was 0. For the same compound, the “Plant response rating, Corn” value (corn; [1]) was 0, the “Plant response rating, Corn” value (corn; [2]) was 0 and the “Plant response rating, Velvetleaf” value (velvetleaf; [1]) was 0. For the same compound, the “Plant response rating, Velvetleaf” value (velvetleaf; [2]) was 0.
